From the NIST ThermoML archive (doi:10.1021/acs.jced.8b00201)
Numbers after ± are expanded uncertainties.

Experiment: xn = mol fraction of the nth substance listed
Conditions: 100 kPa, Liquid; for viscosity: Concentric cylinders viscometry; for mass density: Vibrating tube method

SMILES: O=C1CCCCC1 [cyclohexanone] + CCCCCCO
- viscosity (293.15 K, x1 = 0.0818): 4.66 ± 0.23 mPa·s
- viscosity (293.15 K, x1 = 0.1594): 4.06 ± 0.2 mPa·s
- viscosity (293.15 K, x1 = 0.2401): 3.55 ± 0.18 mPa·s
- viscosity (293.15 K, x1 = 0.3467): 2.97 ± 0.15 mPa·s
- viscosity (293.15 K, x1 = 0.4439): 2.55 ± 0.13 mPa·s
- viscosity (293.15 K, x1 = 0.564): 2.18 ± 0.11 mPa·s
- viscosity (293.15 K, x1 = 0.6501): 2.02 ± 0.1 mPa·s
- viscosity (293.15 K, x1 = 0.7381): 1.97 ± 0.1 mPa·s
- viscosity (293.15 K, x1 = 0.8512): 2 ± 0.1 mPa·s
- viscosity (293.15 K, x1 = 0.9426): 2.13 ± 0.11 mPa·s
- viscosity (293.15 K, x1 = 1): 2.3 ± 0.12 mPa·s
- mass density (293.15 K, x1 = 0.0818): 827.6 ± 20 kg/m3
- mass density (293.15 K, x1 = 0.1594): 836.2 ± 20 kg/m3
- mass density (293.15 K, x1 = 0.2401): 845.5 ± 20 kg/m3
- mass density (293.15 K, x1 = 0.3467): 858.2 ± 20 kg/m3
- mass density (293.15 K, x1 = 0.4439): 870.2 ± 20 kg/m3
- mass density (293.15 K, x1 = 0.564): 885.7 ± 20 kg/m3
- mass density (293.15 K, x1 = 0.6501): 897.3 ± 20 kg/m3
- mass density (293.15 K, x1 = 0.7381): 909.5 ± 20 kg/m3
- mass density (293.15 K, x1 = 0.8512): 925.9 ± 20 kg/m3
- mass density (293.15 K, x1 = 0.9426): 939.8 ± 20 kg/m3
- mass density (293.15 K, x1 = 1): 948.8 ± 20 kg/m3
- viscosity (298.15 K, x1 = 0.0818): 4.03 ± 0.2 mPa·s
- viscosity (298.15 K, x1 = 0.1594): 3.54 ± 0.18 mPa·s
- viscosity (298.15 K, x1 = 0.2401): 3.12 ± 0.16 mPa·s
- viscosity (298.15 K, x1 = 0.3467): 2.63 ± 0.13 mPa·s
- viscosity (298.15 K, x1 = 0.4439): 2.3 ± 0.12 mPa·s
- viscosity (298.15 K, x1 = 0.564): 1.98 ± 0.1 mPa·s
- viscosity (298.15 K, x1 = 0.6501): 1.86 ± 0.09 mPa·s
- viscosity (298.15 K, x1 = 0.7381): 1.81 ± 0.09 mPa·s
- viscosity (298.15 K, x1 = 0.8512): 1.84 ± 0.09 mPa·s
- viscosity (298.15 K, x1 = 0.9426): 1.95 ± 0.1 mPa·s
- viscosity (298.15 K, x1 = 1): 2.09 ± 0.11 mPa·s
- mass density (298.15 K, x1 = 0.0818): 823.8 ± 20 kg/m3
- mass density (298.15 K, x1 = 0.1594): 832.2 ± 20 kg/m3
- mass density (298.15 K, x1 = 0.2401): 841.3 ± 20 kg/m3
- mass density (298.15 K, x1 = 0.3467): 853.7 ± 20 kg/m3
- mass density (298.15 K, x1 = 0.4439): 865.5 ± 20 kg/m3
- mass density (298.15 K, x1 = 0.564): 880.7 ± 20 kg/m3
- mass density (298.15 K, x1 = 0.6501): 892.1 ± 20 kg/m3
- mass density (298.15 K, x1 = 0.7381): 904.2 ± 20 kg/m3
- mass density (298.15 K, x1 = 0.8512): 920.5 ± 20 kg/m3
- mass density (298.15 K, x1 = 0.9426): 934.7 ± 20 kg/m3
- mass density (298.15 K, x1 = 1): 943.1 ± 20 kg/m3
- viscosity (303.15 K, x1 = 0.0818): 3.47 ± 0.17 mPa·s
- viscosity (303.15 K, x1 = 0.1594): 3.07 ± 0.15 mPa·s
- viscosity (303.15 K, x1 = 0.2401): 2.72 ± 0.14 mPa·s
- viscosity (303.15 K, x1 = 0.3467): 2.33 ± 0.12 mPa·s
- viscosity (303.15 K, x1 = 0.4439): 2.05 ± 0.1 mPa·s
- viscosity (303.15 K, x1 = 0.564): 1.8 ± 0.09 mPa·s
- viscosity (303.15 K, x1 = 0.6501): 1.71 ± 0.09 mPa·s
- viscosity (303.15 K, x1 = 0.7381): 1.67 ± 0.08 mPa·s
- viscosity (303.15 K, x1 = 0.8512): 1.7 ± 0.09 mPa·s
- viscosity (303.15 K, x1 = 0.9426): 1.79 ± 0.09 mPa·s
- viscosity (303.15 K, x1 = 1): 1.91 ± 0.1 mPa·s
- mass density (303.15 K, x1 = 0.0818): 820 ± 20 kg/m3
- mass density (303.15 K, x1 = 0.1594): 828.3 ± 20 kg/m3
- mass density (303.15 K, x1 = 0.2401): 837.2 ± 20 kg/m3
- mass density (303.15 K, x1 = 0.3467): 849.5 ± 20 kg/m3
- mass density (303.15 K, x1 = 0.4439): 861.1 ± 20 kg/m3
- mass density (303.15 K, x1 = 0.564): 876.2 ± 20 kg/m3
- mass density (303.15 K, x1 = 0.6501): 887.5 ± 20 kg/m3
- mass density (303.15 K, x1 = 0.7381): 899.5 ± 20 kg/m3
- mass density (303.15 K, x1 = 0.8512): 915.6 ± 20 kg/m3
- mass density (303.15 K, x1 = 0.9426): 929.8 ± 20 kg/m3
- mass density (303.15 K, x1 = 1): 938.2 ± 20 kg/m3
- viscosity (308.15 K, x1 = 0.0818): 3.04 ± 0.15 mPa·s
- viscosity (308.15 K, x1 = 0.1594): 2.71 ± 0.14 mPa·s
- viscosity (308.15 K, x1 = 0.2401): 2.41 ± 0.12 mPa·s
- viscosity (308.15 K, x1 = 0.3467): 2.09 ± 0.11 mPa·s
- viscosity (308.15 K, x1 = 0.4439): 1.87 ± 0.09 mPa·s
- viscosity (308.15 K, x1 = 0.564): 1.67 ± 0.08 mPa·s
- viscosity (308.15 K, x1 = 0.6501): 1.59 ± 0.08 mPa·s
- viscosity (308.15 K, x1 = 0.7381): 1.55 ± 0.08 mPa·s
- viscosity (308.15 K, x1 = 0.8512): 1.58 ± 0.08 mPa·s
- viscosity (308.15 K, x1 = 0.9426): 1.64 ± 0.08 mPa·s
- viscosity (308.15 K, x1 = 1): 1.75 ± 0.09 mPa·s
- mass density (308.15 K, x1 = 0.0818): 816.3 ± 20 kg/m3
- mass density (308.15 K, x1 = 0.1594): 824.4 ± 20 kg/m3
- mass density (308.15 K, x1 = 0.2401): 833.2 ± 20 kg/m3
- mass density (308.15 K, x1 = 0.3467): 845.3 ± 20 kg/m3
- mass density (308.15 K, x1 = 0.4439): 856.8 ± 20 kg/m3
- mass density (308.15 K, x1 = 0.564): 871.8 ± 20 kg/m3
- mass density (308.15 K, x1 = 0.6501): 883 ± 20 kg/m3
- mass density (308.15 K, x1 = 0.7381): 894.9 ± 20 kg/m3
- mass density (308.15 K, x1 = 0.8512): 911 ± 20 kg/m3
- mass density (308.15 K, x1 = 0.9426): 925.1 ± 20 kg/m3
- mass density (308.15 K, x1 = 1): 933.5 ± 20 kg/m3
- viscosity (313.15 K, x1 = 0.0818): 2.66 ± 0.13 mPa·s
- viscosity (313.15 K, x1 = 0.1594): 2.39 ± 0.12 mPa·s
- viscosity (313.15 K, x1 = 0.2401): 2.14 ± 0.11 mPa·s
- viscosity (313.15 K, x1 = 0.3467): 1.86 ± 0.09 mPa·s
- viscosity (313.15 K, x1 = 0.4439): 1.68 ± 0.08 mPa·s
- viscosity (313.15 K, x1 = 0.564): 1.51 ± 0.08 mPa·s
- viscosity (313.15 K, x1 = 0.6501): 1.45 ± 0.07 mPa·s
- viscosity (313.15 K, x1 = 0.7381): 1.42 ± 0.07 mPa·s
- viscosity (313.15 K, x1 = 0.8512): 1.45 ± 0.07 mPa·s
- viscosity (313.15 K, x1 = 0.9426): 1.51 ± 0.08 mPa·s
- viscosity (313.15 K, x1 = 1): 1.6 ± 0.08 mPa·s
- mass density (313.15 K, x1 = 0.0818): 812.4 ± 20 kg/m3
- mass density (313.15 K, x1 = 0.1594): 820.5 ± 20 kg/m3
- mass density (313.15 K, x1 = 0.2401): 829.2 ± 20 kg/m3
- mass density (313.15 K, x1 = 0.3467): 841.1 ± 20 kg/m3
- mass density (313.15 K, x1 = 0.4439): 852.5 ± 20 kg/m3
- mass density (313.15 K, x1 = 0.564): 867.3 ± 20 kg/m3
- mass density (313.15 K, x1 = 0.6501): 878.5 ± 20 kg/m3
- mass density (313.15 K, x1 = 0.7381): 890.3 ± 20 kg/m3
- mass density (313.15 K, x1 = 0.8512): 906.3 ± 20 kg/m3
- mass density (313.15 K, x1 = 0.9426): 920.4 ± 20 kg/m3
- mass density (313.15 K, x1 = 1): 928.8 ± 20 kg/m3
- viscosity (318.15 K, x1 = 0.0818): 2.33 ± 0.12 mPa·s
- viscosity (318.15 K, x1 = 0.1594): 2.1 ± 0.1 mPa·s
- viscosity (318.15 K, x1 = 0.2401): 1.9 ± 0.1 mPa·s
- viscosity (318.15 K, x1 = 0.3467): 1.68 ± 0.08 mPa·s
- viscosity (318.15 K, x1 = 0.4439): 1.52 ± 0.08 mPa·s
- viscosity (318.15 K, x1 = 0.564): 1.38 ± 0.07 mPa·s
- viscosity (318.15 K, x1 = 0.6501): 1.33 ± 0.07 mPa·s
- viscosity (318.15 K, x1 = 0.7381): 1.31 ± 0.07 mPa·s
- viscosity (318.15 K, x1 = 0.8512): 1.33 ± 0.07 mPa·s
- viscosity (318.15 K, x1 = 0.9426): 1.39 ± 0.07 mPa·s
- viscosity (318.15 K, x1 = 1): 1.46 ± 0.07 mPa·s
- mass density (318.15 K, x1 = 0.0818): 808.7 ± 20 kg/m3
- mass density (318.15 K, x1 = 0.1594): 816.7 ± 20 kg/m3
- mass density (318.15 K, x1 = 0.2401): 825.3 ± 20 kg/m3
- mass density (318.15 K, x1 = 0.3467): 837.1 ± 20 kg/m3
- mass density (318.15 K, x1 = 0.4439): 848.4 ± 20 kg/m3
- mass density (318.15 K, x1 = 0.564): 863.1 ± 20 kg/m3
- mass density (318.15 K, x1 = 0.6501): 874.2 ± 20 kg/m3
- mass density (318.15 K, x1 = 0.7381): 886 ± 20 kg/m3
- mass density (318.15 K, x1 = 0.8512): 901.9 ± 20 kg/m3
- mass density (318.15 K, x1 = 0.9426): 916 ± 20 kg/m3
- mass density (318.15 K, x1 = 1): 924.4 ± 20 kg/m3
- viscosity (323.15 K, x1 = 0.0818): 2.05 ± 0.1 mPa·s
- viscosity (323.15 K, x1 = 0.1594): 1.86 ± 0.09 mPa·s
- viscosity (323.15 K, x1 = 0.2401): 1.7 ± 0.09 mPa·s
- viscosity (323.15 K, x1 = 0.3467): 1.51 ± 0.08 mPa·s
- viscosity (323.15 K, x1 = 0.4439): 1.39 ± 0.07 mPa·s
- viscosity (323.15 K, x1 = 0.564): 1.28 ± 0.06 mPa·s
- viscosity (323.15 K, x1 = 0.6501): 1.23 ± 0.06 mPa·s
- viscosity (323.15 K, x1 = 0.7381): 1.22 ± 0.06 mPa·s
- viscosity (323.15 K, x1 = 0.8512): 1.23 ± 0.06 mPa·s
- viscosity (323.15 K, x1 = 0.9426): 1.27 ± 0.06 mPa·s
- viscosity (323.15 K, x1 = 1): 1.34 ± 0.07 mPa·s
- mass density (323.15 K, x1 = 0.0818): 804.9 ± 20 kg/m3
- mass density (323.15 K, x1 = 0.1594): 812.8 ± 20 kg/m3
- mass density (323.15 K, x1 = 0.2401): 821.4 ± 20 kg/m3
- mass density (323.15 K, x1 = 0.3467): 833.2 ± 20 kg/m3
- mass density (323.15 K, x1 = 0.4439): 844.5 ± 20 kg/m3
- mass density (323.15 K, x1 = 0.564): 859.2 ± 20 kg/m3
- mass density (323.15 K, x1 = 0.6501): 870.3 ± 20 kg/m3
- mass density (323.15 K, x1 = 0.7381): 882.2 ± 20 kg/m3
- mass density (323.15 K, x1 = 0.8512): 898.1 ± 20 kg/m3
- mass density (323.15 K, x1 = 0.9426): 912.2 ± 20 kg/m3
- mass density (323.15 K, x1 = 1): 920.7 ± 20 kg/m3
